Where two headings read alike, the source gives them in different places. Numbered stars: 1 amine (or outer) side, 2 acyl side, 3 side chain; on linkers, the order of the positions; unused ones are H or OH. Square brackets hold non-standard residues; d marks the D form. Side chains are listed from the residue outwards. Peptide text beside a SMILES is read from it. * marks the point of attachment. γGlu = O=C(O)[C@H](CCC(=O)[*:2])N[*:1]; αMeF = C[C@](N)(Cc1ccccc1)C(=O)O; αMeK = C[C@](N)(CCCCN)C(=O)O; Lauroyl = CCCCCCCCCCCC(=O)*; αMeS = C[C@](N)(CO)C(=O)O; AEEA = NCCOCCOCC(=O)O; Aib = CC(C)(N)C(=O)O
Experiments:
Assay type in all cases: cell-based
[1] = biological target: T1, human GLP-1 receptor (GLP-1R) (Homo sapiens, UniProt P43220); experiment: cAMP assay, human GLP-1R cells
T1 construct: expressed in transfected cells
T1 sequence (P43220 24-463): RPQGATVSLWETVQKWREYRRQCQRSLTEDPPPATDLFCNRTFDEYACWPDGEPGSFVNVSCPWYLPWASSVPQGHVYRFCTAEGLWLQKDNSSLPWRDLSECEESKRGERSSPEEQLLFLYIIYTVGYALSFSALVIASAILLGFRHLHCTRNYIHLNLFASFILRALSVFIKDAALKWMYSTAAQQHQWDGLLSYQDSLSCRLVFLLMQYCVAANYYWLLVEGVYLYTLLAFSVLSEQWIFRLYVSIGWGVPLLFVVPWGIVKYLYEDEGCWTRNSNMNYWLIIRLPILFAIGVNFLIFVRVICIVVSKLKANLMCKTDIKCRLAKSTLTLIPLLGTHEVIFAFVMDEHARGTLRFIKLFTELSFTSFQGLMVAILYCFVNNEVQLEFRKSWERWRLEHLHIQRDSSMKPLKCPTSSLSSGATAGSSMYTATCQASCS
Procedure, shortened: (§1)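 Peptide-stimulated cAMP measured by two-step HTRF after a 30 min room-temperature incubation with receptor-expressing cells (hGLP-1R, hGIPR at 1×10^5 cells/ml; hGCGR at 2×10^5 cells/ml). Duplicate dilutions; EC50 from 4-parameter logistic fit of % Delta F.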

[2] = biological target: T2, human glucagon receptor (GCGR) (Homo sapiens, UniProt P47871); experiment: cAMP assay, human GCGR cells
T2 construct: expressed in transfected cells
T2 sequence (P47871 26-477): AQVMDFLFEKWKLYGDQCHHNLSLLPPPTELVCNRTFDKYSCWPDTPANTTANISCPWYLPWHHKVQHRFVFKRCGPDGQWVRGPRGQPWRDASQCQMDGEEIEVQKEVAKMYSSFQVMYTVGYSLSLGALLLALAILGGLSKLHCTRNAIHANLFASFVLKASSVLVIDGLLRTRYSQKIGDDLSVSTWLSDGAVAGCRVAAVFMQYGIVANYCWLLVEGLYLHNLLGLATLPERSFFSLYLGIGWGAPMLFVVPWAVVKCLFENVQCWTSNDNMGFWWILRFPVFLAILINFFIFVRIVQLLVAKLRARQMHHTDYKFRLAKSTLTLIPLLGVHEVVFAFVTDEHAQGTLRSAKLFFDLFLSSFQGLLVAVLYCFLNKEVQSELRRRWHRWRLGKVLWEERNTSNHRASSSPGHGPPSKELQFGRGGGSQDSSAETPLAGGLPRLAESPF
Procedure, shortened: as §1

[3] = biological target: T3, human glucose-dependent insulinotropic peptide receptor (GIPR) (Homo sapiens, UniProt P48546); experiment: cAMP assay, human GIPR cells
T3 construct: expressed in transfected cells
T3 sequence (P48546 22-466): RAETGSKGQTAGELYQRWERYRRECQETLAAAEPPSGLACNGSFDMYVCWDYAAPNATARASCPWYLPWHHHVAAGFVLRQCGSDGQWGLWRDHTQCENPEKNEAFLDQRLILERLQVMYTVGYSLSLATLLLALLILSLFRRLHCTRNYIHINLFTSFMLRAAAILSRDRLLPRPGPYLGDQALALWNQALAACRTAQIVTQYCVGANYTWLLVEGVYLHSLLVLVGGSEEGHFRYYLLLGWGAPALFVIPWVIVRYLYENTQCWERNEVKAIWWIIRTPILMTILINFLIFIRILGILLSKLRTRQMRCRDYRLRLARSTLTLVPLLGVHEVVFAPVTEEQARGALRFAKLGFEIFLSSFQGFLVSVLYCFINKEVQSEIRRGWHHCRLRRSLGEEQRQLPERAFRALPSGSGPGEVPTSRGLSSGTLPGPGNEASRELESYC
Procedure, shortened: as §1

GLP-1R (INS1e assay) = biological target: T4, GLP-1R (INS1e assay) (Rattus norvegicus, UniProt P32301); experiment: INS1e assay, cAMP activity at GLP-1R
T4 construct: endogenous in cells; host or cells: INS-1E cells
T4 sequence (P32301 22-463): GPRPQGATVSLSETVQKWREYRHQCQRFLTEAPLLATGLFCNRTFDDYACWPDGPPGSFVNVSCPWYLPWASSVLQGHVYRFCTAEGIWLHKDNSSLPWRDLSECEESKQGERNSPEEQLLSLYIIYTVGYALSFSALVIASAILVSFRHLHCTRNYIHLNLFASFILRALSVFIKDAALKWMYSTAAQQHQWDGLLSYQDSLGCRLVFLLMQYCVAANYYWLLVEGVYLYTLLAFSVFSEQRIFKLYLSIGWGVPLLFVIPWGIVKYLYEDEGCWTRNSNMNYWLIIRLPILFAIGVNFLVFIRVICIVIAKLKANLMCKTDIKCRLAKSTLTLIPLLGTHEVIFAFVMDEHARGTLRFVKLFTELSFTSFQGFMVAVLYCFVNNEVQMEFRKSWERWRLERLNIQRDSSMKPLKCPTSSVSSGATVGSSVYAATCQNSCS
Procedure, shortened: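 cAMP was quantified by two-step HTRF, using anti-cAMP cryptate donor and cAMP-d2 acceptor, each diluted 1/20 in conjugate and lysis buffer. EC50 values of the synthetic peptides were derived from the cAMP readout.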

[4] = cAMP assay, first determination (n1), read-out: Primary assay EC50 GLP-1R n1
[5] = cAMP assay, second determination (n2), read-out: Primary assay EC50 GLP-1R n2
[6] = mean of n1 and n2, read-out: Mean pM GLP-1R
[7] = cAMP assay, first determination (n1), read-out: Primary assay EC50 Gluc-R (n1)
[8] = cAMP assay, second determination (n2), read-out: Primary assay EC50 Gluc-R (n2)
[9] = cAMP assay, first determination (n1), read-out: Primary assay EC50 GIP-R (n1)
[10] = cAMP assay, second determination (n2), read-out: Primary assay EC50 GIP-R (n2)
[11] = mono-lipidated peptides, mean of n1 and n2, read-out: INS1e assay EC50 Mean pM GLP-1R
[12] = mono-lipidated peptides, replicate n1, read-out: INS1e assay EC50 GLP-1R n1
[13] = mono-lipidated peptides, replicate n2, read-out: INS1e assay EC50 GLP-1R n2

Row | EC50 [1, 4] | EC50 [1, 5] | EC50 [1, 6] | EC50 [2, 7] | EC50 [2, 8] | EC50 [3, 9] | EC50 [3, 10] | EC50 (GLP-1R (INS1e assay); [11]) | EC50 (GLP-1R (INS1e assay); [12]) | EC50 (GLP-1R (INS1e assay); [13]) | Compound | other results
1 | 58 pM | 51.2 pM | 55 pM | ≥ 25 nM | ≥ 25.4 nM | ≥ 25 nM | ≥ 25.4 nM | 4060 pM | 1470 pM | 6650 pM | CC[C@H](C)[C@H](NC(=O)[C@](C)(Cc1ccccc1)NC(=O)[C@H](CCC(=O)O)NC(=O)[C@](C)(CCCCN)NC(=O)[C@H](C)NC(=O)[C@H](C)NC(=O)[C@H](CCC(=O)O)NC(=O)CNC(=O)[C@H](CCC(=O)O)NC(=O)[C@H](CC(C)C)NC(=O)[C@](C)(Cc1ccccc1)NC(=O)[C@H](CO)NC(=O)[C@](C)(CO)NC(=O)[C@@H](NC(=O)[C@H](CC(=O)O)NC(=O)[C@H](CO)NC(=O)[C@@H](NC(=O)[C@](C)(Cc1ccccc1)NC(=O)[C@H](CO)NC(=O)CNC(=O)[C@H](CCC(=O)O)NC(=O)C(C)(C)NC(=O)[C@@H](N)Cc1c[nH]cn1)[C@@H](C)O)C(C)C)C(=O)N[C@@H](C)C(=O)N[C@@](C)(Cc1ccccc1)C(=O)N[C@H](C(=O)N[C@H](C(=O)N[C@@H](CCCCNC(=O)COCCOCCNC(=O)COCCOCCNC(=O)CC[C@H](NC(=O)CCCCCCCCCCCCCCCCC(=O)O)C(=O)O)C(=O)NCC(=O)NCC(N)=O)C(C)C)C(C)C [compound 101] | –
2 | – | – | 27.9 pM | – | – | – | – | 1140 pM | 1380 pM | 890 pM | CC[C@H](C)[C@H](NC(=O)[C@](C)(Cc1ccccc1)NC(=O)[C@H](CCC(=O)O)NC(=O)[C@](C)(CCCCN)NC(=O)[C@H](C)NC(=O)[C@H](C)NC(=O)[C@H](CCC(=O)O)NC(=O)CNC(=O)[C@H](CCC(=O)O)NC(=O)[C@H](CC(C)C)NC(=O)[C@](C)(Cc1ccccc1)NC(=O)[C@H](CO)NC(=O)[C@](C)(CO)NC(=O)[C@@H](NC(=O)[C@H](CC(=O)O)NC(=O)[C@H](CO)NC(=O)[C@@H](NC(=O)[C@](C)(Cc1ccccc1)NC(=O)[C@H](CO)NC(=O)CNC(=O)[C@H](CCC(=O)O)NC(=O)C(C)(C)NC(=O)[C@@H](N)Cc1c[nH]cn1)[C@@H](C)O)C(C)C)C(=O)N[C@@H](C)C(=O)N[C@@](C)(Cc1ccccc1)C(=O)N[C@H](C(=O)N[C@H](C(=O)N[C@@H](CCCCNC(=O)COCCOCCNC(=O)COCCOCCNC(=O)CCCCCCCCCCCCCCCCC(=O)O)C(=O)NCC(=O)NCC(N)=O)C(C)C)C(C)C [compound 198] | EC50 ([1]; first run (n1), cAMP activity, read-out: Primary assay EC50 GLP-1R n1): 41 pM; EC50 ([1]; second run (n2), cAMP activity, read-out: Primary assay EC50 GLP-1R n2): 15 pM; EC50 ([2]; first run (n1), cAMP activity of substituted and mono-lipidated peptides, read-out: Primary assay EC50 Gluc-R): ≥ 26 nM; EC50 ([2]; second run (n2), cAMP activity, read-out: Primary assay EC50 Gluc-R): ≥ 26 nM; EC50 ([3]; first run (n1), cAMP activity, read-out: Primary assay EC50 GIP-R): ≥ 26 nM; EC50 ([3]; second run (n2), cAMP activity, read-out: Primary assay EC50 GIP-R): ≥ 26 nM
3 | 170 pM | 260 pM | 216 pM | ≥ 26 nM | – | ≥ 26 nM | – | 32400 pM | 22100 pM | 42600 pM | CC[C@H](C)[C@H](NC(=O)[C@](C)(Cc1ccccc1)NC(=O)[C@H](CCC(=O)O)NC(=O)[C@H](CCCCNC(=O)COCCOCCNC(=O)COCCOCCNC(=O)CC[C@H](NC(=O)CCCCCCCCCCCCCCCCC(=O)O)C(=O)O)NC(=O)[C@H](C)NC(=O)[C@H](C)NC(=O)[C@H](CCC(=O)O)NC(=O)CNC(=O)[C@H](CCC(=O)O)NC(=O)[C@H](CC(C)C)NC(=O)[C@](C)(Cc1ccccc1)NC(=O)[C@H](CO)NC(=O)[C@](C)(CO)NC(=O)[C@@H](NC(=O)[C@H](CC(=O)O)NC(=O)[C@H](CO)NC(=O)[C@@H](NC(=O)[C@](C)(Cc1ccccc1)NC(=O)[C@H](CO)NC(=O)CNC(=O)[C@H](CCC(=O)O)NC(=O)C(C)(C)NC(=O)[C@@H](N)Cc1c[nH]cn1)[C@@H](C)O)C(C)C)C(=O)N[C@@H](C)C(=O)N[C@@](C)(Cc1ccccc1)C(=O)N[C@H](C(=O)N[C@H](C(=O)N[C@@H](CCCCN)C(=O)NCC(=O)NCC(N)=O)C(C)C)C(C)C [compound 50] | –

The remaining lines, values behind:

Row | Compound | EC50 [1, 4] | EC50 [1, 5] | EC50 [1, 6] | EC50 [2, 7] | EC50 [2, 8] | EC50 [3, 9] | EC50 [3, 10] | EC50 (GLP-1R (INS1e assay); [11]) | EC50 (GLP-1R (INS1e assay); [12]) | EC50 (GLP-1R (INS1e assay); [13]) | other results
4 | CCCCCCCCCCCC(=O)N[C@@H](CCC(=O)NCCOCCOCC(=O)NCCOCCOCC(=O)NCCCC[C@H](NC(=O)[C@H](C)NC(=O)[C@@H](NC(=O)[C@H](Cc1ccccc1)NC(=O)[C@H](CCCCNC(=O)COCCOCCNC(=O)COCCOCCNC(=O)CC[C@H](NC(=O)CCCCCCCCCCC)C(=O)O)NC(=O)[C@](C)(CCCCN)NC(=O)[C@H](C)NC(=O)[C@H](C)NC(=O)[C@H](CCC(=O)O)NC(=O)CNC(=O)[C@H](CCC(=O)O)NC(=O)[C@H](CC(C)C)NC(=O)[C@H](CCCCNC(=O)COCCOCCNC(=O)COCCOCCNC(=O)CC[C@H](NC(=O)CCCCCCCCCCC)C(=O)O)NC(=O)[C@H](CO)NC(=O)[C@](C)(CO)NC(=O)[C@@H](NC(=O)[C@H](CC(=O)O)NC(=O)[C@H](CO)NC(=O)[C@@H](NC(=O)[C@](C)(Cc1ccccc1)NC(=O)[C@H](CO)NC(=O)CNC(=O)[C@H](CCC(=O)O)NC(=O)C(C)(C)NC(=O)[C@@H](N)Cc1c[nH]cn1)[C@@H](C)O)C(C)C)[C@@H](C)CC)C(=O)N[C@H](C(=O)N[C@H](C(=O)N[C@@H](CCC(=O)O)C(=O)NCC(=O)NCC(N)=O)C(C)C)C(C)C)C(=O)O [compound 466] (H-H[Aib]EGS[αMeF]TSDV[αMeS]SK([AEEA-AEEA-γGlu-Lauroyl])LEGEAA[αMeK]K([AEEA-AEEA-γGlu-Lauroyl])FIAK([AEEA-AEEA-γGlu-Lauroyl])VVEGG-NH2; N-terminus assumed) | – | – | – | – | – | – | – | – | – | – | EC50 ([1]; tris-lipidated peptides, mean of n1 and n2, read-out: Primary assay EC50 Mean pM GLP-1R): 22.4 pM; EC50 ([1]; tris-lipidated peptides, replicate n1, read-out: Primary assay EC50 GLP-1R n1): 17.2 pM; EC50 ([1]; tris-lipidated peptides, replicate n2, read-out: Primary assay EC50 GLP-1R n2): 27.5 pM; EC50 ([2]; tris-lipidated peptides, first replicate, read-out: Primary assay EC50 Gluc-R (n1)): 20.2 nM; EC50 ([3]; tris-lipidated peptides, first replicate, read-out: Primary assay EC50 GIP-R (n1)): 20.2 nM; EC50 (GLP-1R (INS1e assay); tris-lipidated peptides, mean of n1 and n2, read-out: INS1e assay EC50 Mean pM GLP-1R): 3200 pM; EC50 (GLP-1R (INS1e assay); tris-lipidated peptides, replicate n1, read-out: INS1e assay EC50 GLP-1R n1): 3860 pM; EC50 (GLP-1R (INS1e assay); tris-lipidated peptides, replicate n2, read-out: INS1e assay EC50 GLP-1R n2): 2550 pM
5 | CCCCCCCCCCCCCCCC(=O)N[C@@H](CCC(=O)NCCCC[C@H](NC(=O)[C@@H](NC(=O)[C@@H](NC(=O)[C@](C)(Cc1ccccc1)NC(=O)[C@H](C)NC(=O)[C@@H](NC(=O)[C@](C)(Cc1ccccc1)NC(=O)[C@H](CCC(=O)O)NC(=O)[C@](C)(CCCCN)NC(=O)[C@H](C)NC(=O)[C@H](C)NC(=O)[C@H](CCC(=O)O)NC(=O)CNC(=O)[C@H](CCC(=O)O)NC(=O)[C@H](CC(C)C)NC(=O)[C@](C)(Cc1ccccc1)NC(=O)[C@H](CO)NC(=O)[C@](C)(CO)NC(=O)[C@@H](NC(=O)[C@H](CC(=O)O)NC(=O)[C@H](CO)NC(=O)[C@@H](NC(=O)[C@](C)(Cc1ccccc1)NC(=O)[C@H](CO)NC(=O)CNC(=O)[C@H](CCC(=O)O)NC(=O)C(C)(C)NC(=O)[C@@H](N)Cc1c[nH]cn1)[C@@H](C)O)C(C)C)[C@@H](C)CC)C(C)C)C(C)C)C(=O)NCC(=O)NCC(N)=O)C(=O)O [compound 72] | 46 pM | 52 pM | 49 pM | ≥ 28 nM | ≥ 28 nM | ≥ 28 nM | ≥ 28 nM | 6160 pM | 4260 pM | 8070 pM | –

From patent publication US10414811B2, “Protease-resistant lipidated GLP-1 analogs” (MEDIMMUNE LIMITED, priority 2015, dated 2019)
